# Measured values taken from US20160177324A1, “NOVEL PROTEIN AND GENE RELATED TO FLAVONOID O-METHYLTRANSFERASE (FOMT) AND THEIR USES THEREFORE” (INSTITUTE OF BOTANY, THE CHINESE ACADEMY OF SCIENCES, priority 2013, published 2016).
# Like-named read-outs stand apart in the source and are kept apart here.
# What was measured:
# PsFOMT [1] = experiment: In vitro enzyme assay and kinetics of recombinant PsFOMT with flavonoid substrates; assay type: biochemical, Paeonia suffruticosa cv. 'Gunpohden'; set-up: key to Vmax / Kcat × 10 / Kcat/Km / Specific Activity: —: no product detected; conditions: for Kcat × 10 / Kcat/Km / Specific Activity / Vmax: purified recombinant PsFOMT, 200 μM SAM, 1 mM MgCl2, pH 7.5, 35° C., means (SE) of triplicate assays; for catalytical efficiency of PsFOMT fusion protein for substrate / methylation of substrate by PsFOMT: in the presence of SAM
# From the text: Full length FOMTs were amplified by primers SEQ No.7 & 8 in which restriction enzyme NdeI and BamHI site were introduced to the 5'-end and 3'-end, respectively. The DNA fragment of interest was ligated into the […]3 vector, and then the recombinant plasmid was transducted into DH5a. The FOMT cDNAs were sequenced to verify that no mutation occurred. The recombinant plasmid was isolated and digested with Ndel and BamHI. Subsequently, the fragment was ligated to the NdeI and BamHI excised expression vector pMAL-[…] with a MBP tag to yield pMAL-PsFOMT and pMAL-PtFOMT (FIG. 3). The correct construction tested by sequencing was introduced into E. coli strain BL21. E. coli harboring pMAL-PsFOMT and pMAL-PtFOMT were cultivated in 2 mL LB liquid medium containing glucose, supplemented by 100 μg/mL ampicillin until OD600 reached 0.4-0.5. After addition of isopropyl β-D-thiogalactopyranoside (IPTG) to a final concentration of 0.1 mM, the cells were further cultured at 16° C. for 20 h. Harvest the cells by centrifugation and discard the supernatant. The cells were resuspended in column buffer (20 mM Tris-HCl, 200 mM NaCl 1 mM EDTA, 10 mM β-mercaptoethanol, pH 7.4), and disrupted by sonication in an ice-water bath (Lan, T., et al., Extensive functional diversification of the Populus glutathione S-transferase supergene family. Plant Cell, 2009. 21(12): p. 3749-3766.). In each case, the homogenate was then subjected to centrifugation at 10,000 g for 10 min at 4° C. The resultant particulate material and a small portion of the supernatant were analyzed by SDS-PAGE. The rest of the supernatant was loaded onto an amylose resin column (NEB) that had been pre-equilibrated with column buffer. The overexpressed fusion protein bound to the column was eluted with column buffer plus 10 mM maltose. The concentration of purified fusion protein was detected by UV absorbance at 280 nm. As a control, BL21 cells transformed with an empty pMAL-[…] vector were assayed. The purified protein was stored at -80° C. mixed with 10% glycerol. The reaction system was according to Hugueney et al. with some modification (Hugueney, P., et al., A novel cation-dependent O-methyltransferase involved in anthocyanin methylation in grapevine. Plant Physiology, 2009. 150(4): p. 2057-2070.). Purified recombinant FOMT (2 μg) was assayed in a final volume of 200 μL containing 200 μM SAM, 1 mM MgCl2, 14 mM β-mercaptoethanol, 100 mM Tris, pH 7.5, and 20 μM flavonoid substrates. Incubation was performed at 35° C. and stopped with 200 μL methanol containing 2% formic acid. […] Reaction product was analyzed by a Dionex HPLC system (Sunnyvale, Calif.), equipped with a P680 HPLC pump, an UltiMate 3000 autosampler, a TCC-100 thermostated column compartment and a Dionex PDA100 photodiode array detector. The analytical column was C18 column of ODS 80Ts QA (150 mm×4.6 mm, 5 μm i.d., Tosoh, Tokyo) protected with a C18 guard cartridge (Shanghai ANPEL Scientific Instrument, Shanghai). The following solvent and gradient were used: A, 10% aqueous formic acid; B, methanol; constant gradient from 10 to 36% B within 15 min and back to 10% B in 3 min; the flow rate was 0.8 mL min^-1; Column temperature was maintained at 35° C.; 20 μL of analyte was injected. Chromatograms were obtained at 525 nm for anthocyanins and 350 nm for other flavonoids, and photodiode array spectra were recorded from 200 to 800 nm. Km and Vmax values were calculated from Lineweaver-Burk plots.
# PsFOMT [2] = experiment: as above; assay type: biochemical, Paeonia suffruticosa cv. 'Gunpohden'; set-up: key: —: no product detected; conditions: purified recombinant PsFOMT, 200 μM SAM, 1 mM MgCl2, pH 7.5, 35° C., substrate 5 to 200 μM, means (SE) of triplicate assays
# PtFOMT = experiment: In vitro enzymatic activity of recombinant PtFOMT with potential substrates; assay type: biochemical, Paeonia tenuifolia; conditions: purified recombinant PtFOMT; means ± SE of triplicate assays
# From the text: Full length FOMTs were amplified by primers SEQ No.7 & 8 in which restriction enzyme NdeI and BamHI site were introduced to the 5′-end and 3′-end, respectively. The DNA fragment of interest was ligated into the pEASY-T3 vector, and then the recombinant plasmid was transducted into DH5a. The FOMT cDNAs were sequenced to verify that no mutation occurred. The recombinant plasmid was isolated and digested with Ndel and BamHI. Subsequently, the fragment was ligated to the NdeI and BamHI excised expression vector pMAL-c5X with a MBP tag to yield pMAL-PsFOMT and pMAL-PtFOMT (FIG. 3). The correct construction tested by sequencing was introduced into E. coli strain BL21. E. coli harboring pMAL-PsFOMT and pMAL-PtFOMT were cultivated in 2 mL LB liquid medium containing glucose, supplemented by 100 μg/mL ampicillin until OD600 reached 0.4-0.5. After addition of isopropyl β-D-thiogalactopyranoside (IPTG) to a final concentration of 0.1 mM, the cells were further cultured at 16° C. for 20 h. Harvest the cells by centrifugation and discard the supernatant. The cells were resuspended in column buffer (20 mM Tris-HCl, 200 mM NaCl 1 mM EDTA, 10 mM β-mercaptoethanol, pH 7.4), and disrupted by sonication in an ice-water bath (Lan, T., et al., Extensive functional diversification of the Populus glutathione S-transferase supergene family. Plant Cell, 2009. 21(12): p. 3749-3766.). In each case, the homogenate was then subjected to centrifugation at 10,000 g for 10 min at 4° C. The resultant particulate material and a small portion of the supernatant were analyzed by SDS-PAGE. The rest of the supernatant was loaded onto an amylose resin column (NEB) that had been pre-equilibrated with column buffer. The overexpressed fusion protein bound to the column was eluted with column buffer plus 10 mM maltose. The concentration of purified fusion protein was detected by UV absorbance at 280 nm. As a control, BL21 cells transformed with an empty pMAL-c5X vector were assayed. The purified protein was stored at −80° C. mixed with 10% glycerol.
# The reaction system was according to Hugueney et al. with some modification (Hugueney, P., et al., A novel cation-dependent O-methyltransferase involved in anthocyanin methylation in grapevine. Plant Physiology, 2009. 150(4): p. 2057-2070.). Purified recombinant FOMT (2 μg) was assayed in a final volume of 200 μL containing 200 μM SAM, 1 mM MgCl2, 14 mM β-mercaptoethanol, 100 mM Tris, pH 7.5, and 20 μM flavonoid substrates. Incubation was performed at 35° C. and stopped with 200 μL methanol containing 2% formic acid. For enzyme kinetic studies, purified FOMT was incubated based on the above condition with the exception that a range of substrate concentrations from 5 to 200 μM were used for Km determination. Reaction product was analyzed by a Dionex HPLC system (Sunnyvale, Calif.), equipped with a P680 HPLC pump, an UltiMate 3000 autosampler, a TCC-100 thermostated column compartment and a Dionex PDA100 photodiode array detector. The analytical column was C18 column of ODS 80Ts QA (150 mm×4.6 mm, 5 μm i.d., Tosoh, Tokyo) protected with a C18 guard cartridge (Shanghai ANPEL Scientific Instrument, Shanghai). […] Chromatograms were obtained at 525 nm for anthocyanins and 350 nm for other flavonoids, and photodiode array spectra were recorded from 200 to 800 nm. Km and Vmax values were calculated from Lineweaver-Burk plots.
# [3] = tested on: cyanidin 3-glucoside 3′-O-methyltransferase (CGMT); conditions: partially purified from Vitis vinifera cell suspension; Bailly et al. 1997; cited from earlier work
Kcat × 10 (PsFOMT [1]),Kcat/Km (PsFOMT [1]),Specific Activity (PsFOMT [1]),Vmax (PsFOMT [1]),Km (PsFOMT [2]),catalytical efficiency of PsFOMT fusion protein for substrate (PsFOMT [1]),Km (PsFOMT [2]; read-out: Km) [µM],SMILES,Specific Activity (PtFOMT) [pkat mg^−1],methylation of substrate by PsFOMT (PsFOMT [1]),activity of CGMT with substrate [3]
—,—,—,—,—,,,O=C(O)/C=C/c1ccc(O)c(O)c1 [Caffeic acid],,,
127.70 (1.05) s^−1,,1788 (15) pkat mg^−1,17.88 (0.25) nM s^−1,,high catalytical efficiency,1.06,"OC[C@H]1O[C@@H](Oc2cc3c(O[C@@H]4O[C@H](CO)[C@@H](O)[C@H](O)[C@H]4O)cc(O)cc3[o+]c2-c2ccc(O)c(O)c2)[C@H](O)[C@@H](O)[C@@H]1O [Cyanidin 3,5-di-O-glucoside]",29.60 ± 3.47,,
217.90 (36.48) s^−1,,3138 (525) pkat mg^−1,39.22 (6.57) nM s^−1,,,31.7,OC[C@H]1O[C@@H](Oc2cc3c(O)cc(O)cc3[o+]c2-c2ccc(O)c(O)c2)[C@H](O)[C@@H](O)[C@H]1O [Cyanidin 3-O-galactoside],,can be methylated,
161.99 (0.73) s^−1,,2314 (11) pkat mg^−1,11.57 (0.05) nM s^−1,,high catalytical efficiency,1.76,OC[C@H]1O[C@@H](Oc2cc3c(O)cc(O)cc3[o+]c2-c2ccc(O)c(O)c2)[C@H](O)[C@@H](O)[C@@H]1O [Cyanidin 3-O-glucoside],37.98 ± 1.05,,
94.72 (1.49) s^−1,,1364 (21) pkat mg^−1,17.05 (0.27) nM s^−1,,,4.11,OC[C@H]1O[C@@H](Oc2cc3c(O)cc(O)cc3[o+]c2-c2cc(O)c(O)c(O)c2)[C@H](O)[C@@H](O)[C@@H]1O [Delphinidin 3-O-glucoside],21.50 ± 0.10,sequentially methylate 3′- and 5′-OH at B ring,
—,—,—,—,—,,,O=c1c(O)c(-c2ccc(O)cc2)oc2cc(O)cc(O)c12 [Kaempferol],,,
—,—,—,—,—,,,O=c1cc(-c2ccc(O)c(O)c2)oc2cc(O)cc(O)c12 [Luteolin],,,
—,—,—,—,—,,,O=C1C[C@@H](c2ccc(O)cc2)Oc2cc(O)cc(O)c21 [Naringenin],,,
—,—,—,—,—,,,OC[C@H]1O[C@@H](Oc2cc3c(O)cc(O)cc3[o+]c2-c2ccc(O)cc2)[C@H](O)[C@@H](O)[C@@H]1O [Pelargonidin 3-O-glucoside],,,
9.83 (0.12) s^−1,,142 (2) pkat mg^−1,1.77 (0.02) nM s^−1,,,4.33,O=c1c(O)c(-c2ccc(O)c(O)c2)oc2cc(O)cc(O)c12 [Quercetin],17.58 ± 0.57,can be methylated,
,,,,,,,O=C(/C=C/c1ccc(O)cc1)OC[C@H]1O[C@@H](Oc2cc3c(O)cc(=O)cc-3oc2-c2ccc(O)c(O)c2)[C@H](O)[C@@H](O)[C@@H]1O [cyanidin 3-p-coumaroyl glucoside],,,no activity

SMILES,Kcat × 10 (PsFOMT [1]),Kcat/Km (PsFOMT [1]),Specific Activity (PsFOMT [1]),Vmax (PsFOMT [1]),Km (PsFOMT [2]),catalytical efficiency of PsFOMT fusion protein for substrate (PsFOMT [1]),Km (PsFOMT [2]; read-out: Km) [µM],Specific Activity (PtFOMT) [pkat mg^−1],methylation of substrate by PsFOMT (PsFOMT [1]),activity of CGMT with substrate [3]
C[C@@H]1O[C@@H](OC[C@H]2O[C@@H](Oc3c(-c4ccc(O)c(O)c4)oc4cc(O)cc(O)c4c3=O)[C@H](O)[C@@H](O)[C@@H]2O)[C@H](O)[C@H](O)[C@H]1O [Quercetin 3-O-rutinoside],192.11 (4.41) s^−1,,2744 (135) pkat mg^−1,27.44 (1.63) nM s^−1,,,12.3,30.20 ± 0.24,can be methylated,
